Results from patent publication US8158783B2, “MTP inhibiting tetrahydro-naphthalene-1-carboxylic acid derivatives” (Janssen Pharmaceutica N.V., priority 2006, dated 2012).

How the values were obtained:
[1] = tested on: secretion of ApoB, HepG2 cells; assay: Quantification of the secretion of ApoB in HepG2 cells; format: cell-based; settings: Homo sapiens, 24 hours of incubation, pIC50 = -log IC50
Method: HepG2 cells were cultured in 24-well plates in MEM Rega 3 containing 10% fetal calf serum. At 70% confluency, the medium was changed and the test compound or carrier (DMSO, 0.4% final concentration) was added. After 24 hours of incubation, the medium was transferred to Eppendorf tubes and cleared by centrifugation. A sheep antibody directed against either apoB was added to the supernatant and the mixture was kept at 8° C. for 24 hours. Then, rabbit anti-sheep antibody was added and the immune complex was allowed to precipitate for 24 hours at 8° C. The immunoprecipitate was pelleted by centrifugation for 25 minutes at 1320 g and washed twice with a buffer containing 40 mM Mops, 40 mM NaH2PO4, 100 mM NaF, 0.2 mM DTT, 5 mM EDTA, 5 mM EGTA, 1% Triton-X-100, 0.5% sodium deoxycholate (DOC), 0.1% SDS, 0.2 mM leupeptin and 0.2 mM PMSF. Radioactivity in the pellet was quantified by liquid scintillation counting.

MTP = MTP (Homo sapiens, UniProt P55157); assay: MTP assay (triglyceride transfer from donor to acceptor vesicles); format: biochemical; settings: MTP activity, [14C]-triglyceride transfer between vesicles, 37° C.
Sequence of MTP (P55157 19-894, species assumed): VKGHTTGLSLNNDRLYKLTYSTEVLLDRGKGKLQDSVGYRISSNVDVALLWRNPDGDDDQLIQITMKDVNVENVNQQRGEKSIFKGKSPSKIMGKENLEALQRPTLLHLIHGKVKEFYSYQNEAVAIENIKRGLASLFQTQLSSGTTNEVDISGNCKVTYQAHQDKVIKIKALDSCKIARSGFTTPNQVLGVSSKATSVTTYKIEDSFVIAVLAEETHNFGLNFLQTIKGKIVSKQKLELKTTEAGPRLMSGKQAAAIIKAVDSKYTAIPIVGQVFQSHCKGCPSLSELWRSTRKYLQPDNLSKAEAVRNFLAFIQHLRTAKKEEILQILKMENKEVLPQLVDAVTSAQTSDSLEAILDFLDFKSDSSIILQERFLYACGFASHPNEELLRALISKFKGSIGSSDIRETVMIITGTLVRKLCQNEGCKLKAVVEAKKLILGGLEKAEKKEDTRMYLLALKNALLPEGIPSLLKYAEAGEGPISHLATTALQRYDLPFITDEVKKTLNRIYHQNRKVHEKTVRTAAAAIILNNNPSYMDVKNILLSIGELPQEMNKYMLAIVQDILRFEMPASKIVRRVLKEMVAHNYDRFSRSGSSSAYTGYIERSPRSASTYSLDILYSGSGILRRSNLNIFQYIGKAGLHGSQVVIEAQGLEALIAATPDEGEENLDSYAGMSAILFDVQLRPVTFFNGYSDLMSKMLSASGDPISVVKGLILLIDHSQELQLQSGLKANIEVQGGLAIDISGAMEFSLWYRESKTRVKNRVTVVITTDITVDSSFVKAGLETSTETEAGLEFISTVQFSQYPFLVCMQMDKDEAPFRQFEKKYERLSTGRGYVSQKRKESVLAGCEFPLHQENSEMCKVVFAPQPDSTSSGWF
Sequence of MTP (P07237 18-508 partner, species assumed): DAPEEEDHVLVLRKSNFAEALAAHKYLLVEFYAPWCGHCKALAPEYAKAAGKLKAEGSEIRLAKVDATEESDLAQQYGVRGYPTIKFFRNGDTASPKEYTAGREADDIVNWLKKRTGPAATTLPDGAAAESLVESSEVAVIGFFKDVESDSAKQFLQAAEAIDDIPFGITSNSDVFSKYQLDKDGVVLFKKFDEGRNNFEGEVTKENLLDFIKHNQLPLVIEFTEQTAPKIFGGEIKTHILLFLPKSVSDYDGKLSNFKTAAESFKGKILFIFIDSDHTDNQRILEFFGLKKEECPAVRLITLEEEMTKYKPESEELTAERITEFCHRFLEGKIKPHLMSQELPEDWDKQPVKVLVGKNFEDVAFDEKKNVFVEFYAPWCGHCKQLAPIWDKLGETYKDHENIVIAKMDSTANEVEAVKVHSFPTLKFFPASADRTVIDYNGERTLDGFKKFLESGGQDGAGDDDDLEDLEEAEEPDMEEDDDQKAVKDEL
Method: MTP activity was measured using an assay similar to one described by J. R. Wetterau and D. B. Zilversmit in Chemistry and Physics of Lipids, 38, 205-222 (1985). To prepare the donor and acceptor vesicles, the appropriate lipids in chloroform were put into a glass test tube and dried under a stream of N2. A buffer containing 15 mM Tris-HCl pH 7.5, 1 mM EDTA, 40 mM NaCl, 0.02% NaN3 (assay buffer) was added to the dried lipid. The mixture was vortexed briefly and the lipids were then allowed to hydrate for 20 min on ice. Vesicles were then prepared by bath sonication (Branson 2200) at room temperature for maximum 15 min. Butylated hydroxytoluene was included in all vesicle preparations at a concentration of 0.1%. The lipid transfer assay mixture contained donor vesicles (40 nmol phosphatidylcholine, 7.5 mol % of cardiolipin and 0.25 mol % glycerol tri[1-^14C]-oleate), acceptor vesicles (240 nmol phosphatidylcholine) and 5 mg BSA in a total volume of 675 μl in a 1.5 ml microcentrifuge tube. Test compounds were added dissolved in DMSO (0.13% final concentration). After 5 minutes of pre-incubation at 37° C., the reaction was started by the addition of MTP in 100 μl dialysis buffer. The reaction was stopped by the addition of 400 μl DEAE-52 cellulose pre-equilibrated in 15 mM Tris-HCl pH 7.5, 1 mM EDTA, 0.02% NaN3 (1:1, vol/vol). The mixture was agitated for 4 min and centrifuged for 2 min at maximum speed in an Eppendorf centrifuge (4° C.) to pellet the DEAE-52-bound donor vesicles. An aliquot of the supernatant containing the acceptor liposomes was counted and the [^14C]-counts were used to calculate the percent triglyceride transfer from donor to acceptor vesicles.

Row | SMILES | IC50 [1] [nM] | IC50 (MTP) [nM]
1 | CCOC(=O)[C@]1(c2ccccc2)CC[C@@H](C(=O)NCCNC(=O)c2ccccc2)c2ccccc21 [compound 1] |  | 1250
2 | CCOC(=O)[C@]1(c2ccccc2)CC[C@@H](C(=O)NCCNC(=O)c2ccccc2OC)c2ccccc21 [compound 2] |  | 406
3 | CCOC(=O)[C@]1(c2ccccc2)CC[C@@H](C(=O)NCCNC(=O)c2ccccc2-c2ccc(C(F)(F)F)cc2)c2ccccc21 [compound 3] |  | 208
4 | CCOC(=O)[C@]1(c2ccccc2)CC[C@@H](C(=O)NCCCNC(=O)c2ccccc2)c2ccccc21 [compound 4] | 317 | 22.2
5 | CCOC(=O)[C@]1(c2ccccc2)CC[C@@H](C(=O)NCCCNC(=O)c2ccccc2OC)c2ccccc21 [compound 5] | 192 | 9.38
6 | CCOC(=O)[C@]1(c2ccccc2)CC[C@@H](C(=O)NCCCNC(=O)c2ccccc2-c2ccc(C(F)(F)F)cc2)c2ccccc21 [compound 6] | 42.7 | 9.59
7 | CCOC(=O)[C@]1(c2ccccc2)CC[C@@H](C(=O)N(C)CCNC(=O)c2ccccc2)c2ccccc21 [compound 7] | > 1000 | 85.5
8 | CCOC(=O)[C@]1(c2ccccc2)CC[C@@H](C(=O)N(C)CCNC(=O)c2ccccc2OC)c2ccccc21 [compound 8] | > 1000 | 27
9 | CCOC(=O)[C@]1(c2ccccc2)CC[C@@H](C(=O)N(C)CCNC(=O)c2ccccc2-c2ccc(C(F)(F)F)cc2)c2ccccc21 [compound 9] | 128 | 19.1
10 | CCOC(=O)[C@]1(c2ccccc2)CC[C@@H](C(=O)N(C)CCCNC(=O)c2ccccc2)c2ccccc21 [compound 10] | 746 | 10
11 | CCOC(=O)[C@]1(c2ccccc2)CC[C@@H](C(=O)N(C)CCCNC(=O)c2ccccc2OC)c2ccccc21 [compound 11] | 665 | 
12 | CCOC(=O)[C@]1(c2ccccc2)CC[C@@H](C(=O)N(C)CCCNC(=O)c2ccccc2-c2ccc(C(F)(F)F)cc2)c2ccccc21 [compound 12] | 23.2 | 6.34
13 | CCOC(=O)[C@]1(c2ccccc2)CC[C@H](C(=O)NCCNC(=O)c2ccccc2)c2ccccc21 [compound 13] |  | 5380
14 | CCOC(=O)[C@]1(c2ccccc2)CC[C@H](C(=O)NCCNC(=O)c2ccccc2OC)c2ccccc21 [compound 14] |  | 2490
15 | CCOC(=O)[C@]1(c2ccccc2)CC[C@H](C(=O)NCCNC(=O)c2ccccc2-c2ccc(C(F)(F)F)cc2)c2ccccc21 [compound 15] |  | 2750
16 | CCOC(=O)[C@]1(c2ccccc2)CC[C@H](C(=O)NCCCNC(=O)c2ccccc2)c2ccccc21 [compound 16] | 791 | > 100
17 | CCOC(=O)[C@]1(c2ccccc2)CC[C@H](C(=O)NCCCNC(=O)c2ccccc2OC)c2ccccc21 [compound 17] | 415 | 37.3
18 | CCOC(=O)[C@]1(c2ccccc2)CC[C@H](C(=O)NCCCNC(=O)c2ccccc2-c2ccc(C(F)(F)F)cc2)c2ccccc21 [compound 18] | 309 | 61.8
19 | CCOC(=O)[C@]1(c2ccccc2)CC[C@H](C(=O)N(C)CCNC(=O)c2ccccc2)c2ccccc21 [compound 19] | 228 | 131

Next, values leading:

Row | IC50 [1] [nM] | IC50 (MTP) [nM] | SMILES
20 | 17.3 | 6.52 | CCOC(=O)[C@@]1(c2ccccc2)CC[C@H](C(=O)NCCNC(=O)c2ccccc2OC)c2ccccc21 (stereo in doubt) [compound 25]
21 | 560 | 173 | CCOC(=O)[C@]1(c2ccccc2)CC[C@@H](C(=O)NCCNC(=O)c2ccccc2OC)c2ccccc21 (stereo in doubt) [compound 26]
22 | 95.9 | 7.18 | CCOC(=O)[C@@]1(c2ccccc2)CC[C@H](C(=O)N(C)CCCNC(=O)c2ccccc2OC)c2ccccc21 (stereo in doubt) [compound 28]
23 | > 1000 | 70.6 | CCOC(=O)[C@]1(c2ccccc2)CC[C@H](C(=O)N(C)CCNC(=O)c2ccccc2OC)c2ccccc21 [compound 20]
24 | 240 | 48.2 | CCOC(=O)[C@]1(c2ccccc2)CC[C@H](C(=O)N(C)CCNC(=O)c2ccccc2-c2ccc(C(F)(F)F)cc2)c2ccccc21 [compound 21]
25 | 662 | 16.4 | CCOC(=O)[C@]1(c2ccccc2)CC[C@H](C(=O)N(C)CCCNC(=O)c2ccccc2)c2ccccc21 [compound 22]
26 | 597 | 11.6 | CCOC(=O)[C@]1(c2ccccc2)CC[C@H](C(=O)N(C)CCCNC(=O)c2ccccc2OC)c2ccccc21 [compound 23]
27 | 23.2 | 6.11 | CCOC(=O)[C@]1(c2ccccc2)CC[C@H](C(=O)N(C)CCCNC(=O)c2ccccc2-c2ccc(C(F)(F)F)cc2)c2ccccc21 [compound 24]
28 | 104 | 40 | CCCOC(=O)[C@]1(c2ccccc2)CC[C@@H](C(=O)N2CCC(NC(=O)c3ccccc3OC)C2)c2ccccc21 (stereo partly shown) [compound 29]
29 | 76.7 | 23.3 | CCCOC(=O)[C@]1(c2ccccc2)CCC(C(=O)N2CC[C@@H](NC(=O)c3cccnc3OC)C2)c2ccccc21 (stereo partly shown) [compound 30]
30 | > 1000 | 65.2 | COC(=O)CCNC(=O)[C@]1(c2ccccc2)CC[C@@H](C(=O)N(C)CCCNC(=O)c2ccccc2OC)c2ccccc21 [compound 31]
31 | > 1000 | 166 | COC(=O)CCNC(=O)[C@]1(c2ccccc2)CC[C@@H](C(=O)N(C)CCCNC(=O)c2cccnc2OC)c2ccccc21 [compound 32]
32 | > 1000 | 80 | COC(=O)CCNC(=O)[C@]1(c2ccccc2)CC[C@@H](C(=O)N2CCCC(NC(=O)c3cccnc3OC)CC2)c2ccccc21 (stereo partly shown) [compound 33]
33 | 286 | 23 | CCCOC(=O)[C@]1(c2ccccc2)CC[C@@H](C(=O)N2CCCC(NC(=O)c3ccccc3OC)CC2)c2ccccc21 (stereo partly shown) [compound 42]
34 |  | > 1000 | COC(=O)CCNC(=O)[C@]1(c2ccccc2)CC[C@@H](C(=O)N2CCOC(CNC(=O)c3cccnc3O)C2)c2ccccc21 (stereo partly shown) [compound 43]
35 |  | 52.8 | COC(=O)CCNC(=O)[C@]1(c2ccccc2)CC[C@@H](C(=O)N2CCCC(NC(=O)c3ccccc3OC)CC2)c2ccccc21 (stereo partly shown) [compound 44]
